Here are results for 11 molecules from patent publication US5898069A, “Phosphate assay” (Medical Research Council, priority 1993, dated 1999).

The target in one data set is T1, MDCC-PBP (Escherichia coli, UniProt P0AG82, A222C).
T1 construct: A197 is located at position 197 numbering from the N-terminus of the mature PBP; made in house; host or cells: E. coli strain ANCC75, plasmid pSN5182/N, periplasm
The format is binding, E. coli. How it is done:
The Pi dependent fluorescence change was measured for a variety of conditions at a single concentration of Pi (Table 2).
(§1) The solutions contained 2 μM MDCCPBP (except for [b] 10 μM and [c]
The fluorescence change was measured at 465 nm with excitation at
[a] The solution was preincubated with the Pi mop.

The next data set deals with T2, CPM-PBP (Escherichia coli, UniProt P0AG82, A222C).
T2 construct: A197 is located at position 197 numbering from the N-terminus of the mature PBP; made in house; host or cells: E. coli strain ANCC75, plasmid pSN5182/N, periplasm
T2 sequence (P0AG82 26-346 A222C): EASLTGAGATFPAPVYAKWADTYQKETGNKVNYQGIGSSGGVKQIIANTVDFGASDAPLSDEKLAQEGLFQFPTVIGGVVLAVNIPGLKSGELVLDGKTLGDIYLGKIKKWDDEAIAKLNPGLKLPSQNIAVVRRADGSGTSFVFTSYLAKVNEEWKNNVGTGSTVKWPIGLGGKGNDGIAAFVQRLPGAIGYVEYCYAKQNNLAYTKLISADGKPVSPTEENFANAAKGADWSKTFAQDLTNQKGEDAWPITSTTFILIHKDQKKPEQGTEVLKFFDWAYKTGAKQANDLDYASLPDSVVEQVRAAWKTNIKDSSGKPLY
The format is binding, E. coli. How it is done: Analysis of the effects of Pi analogues and solution composition was performed as for MDCC-PBP.

A further data set has as its target T3, PBP mutant D292C (Escherichia coli, UniProt P0AG82, D317C).
T3 construct: from the Nterminus of the mature protein; made in house; host or cells: E. coli strain ANCC75, plasmid pSN5182/N, periplasm
The format is binding, E. coli. An excerpt: (e) Using the Pi mop, the fluorescence change was 65%.

A short description of data set [1]: Pi dependent fluorescence change of labelled PBP in various solution compositions. The class given is binding. The note with it: for % fluorescence increase: 100 μM Pi added. The protocol:
3.2 μM MDCC-PBP was in 10 mM PIPES, 1 mM MgCl2 (pH 7.0) at 22° C. Pi was added to 50 μM;
Because very small levels of Pi contamination can affect the observed change on adding Pi and because of variability in the protein activity, the maximum percent increase of fluorescence varies from 400-500%0 Although PBP is very specific for Pi (Luecke & Quiocho, 1990), it was to be used as a probe in the presence of other phosphate species, such as esters or purine nucleotides and so it was important to know at what levels these might interfere with Pi measurements. Several Pi analogues were also tested (Table 2) and only arsenate and vanadate produced significant increases. For a titration of arsenate in a solution of MDCC-PBP, the fluorescence change was used to obtain a dissociation constant of 3 μM. In all cases except arsenate, when subsequently Pi was added, the full fluorescent change was observed. The Pi dependent fluorescence change was measured for a variety of conditions at a single concentration of Pi (Table 2). The change is only slightly affected by pH (7-8) or ionic strength.
as §1
3.2 μM) in 20 mM PIPES (pH 7.0) except where indicated. The solutions
in B had 100 μM Pi added to produce the indicated fluorescence
change. […]

Data set [2] is described as follows: Fluorescence titration of Pi to labelled PBP to obtain the dissociation constant. The format is binding. The note with it: for Kd: approximate. How it is done: The solution at 20° C. contained […] MDCC-PBP, 1 mM MgCl2, 10 mM PIPES pH 7.0. Aliquots of Pi were added and the fluorescence emission was measured at 465 nm with excitation at 425 nm. The data was corrected for the small amount of dilution;
The solution at 25° C. in 10 mM PIPES, pH 7.0, 1 mM MgCl2 contained 0.28 μM MDCC-PBP. Aliquots of Pi were added and the fluorescence emission was measured as in FIG. 3.
The fluorescence titrations of Pi with CPM-PBP (and MDCC-PBP) were fitted to the following equations using Enzfitter software:
Ratio of fluorescence at a given [Pi ] to that at zero Pi =(Q[Ep ]+[E]-[Ep ])/[E] where
[E ]P=([P]+[E]+K-√(([P]+[E]+K)^2 -4[P][E]))/2
[E]=concentration of CPM-PBP
Q=ratio of fluorescence for CPM-PBP.Pi to that for the unliganded CPM-PBP
The product was characterized in several ways. […] The dissociation constant was determined by titrating Pi at low [MDCC-PBP] and measuring fluorescence (FIG. 4). […] Because Pi binding is very tight, these dissociation constants can be considered only approximate: the fluorescence titration could not be done at sufficiently low concentrations to obtain accurate values of Kd.

Data set [3] can be described thus: Stopped-flow kinetics of Pi binding to labelled PBP and its release. The protocol: A. 0.1 μM MDCC-PBP (mixing chamber concentration) in 10 mM PIPES, pH 7.0 was rapidly mixed at 21° C. with different concentrations of Pi in this buffer in a stopped flow apparatus, while fluorescence emission was monitored using a 455 nm cut-off filter, with excitation at 436 nm using a mercury lamp. The curve show a time course with 0.25 μM Pi. […] The best-fit single exponential (65.3 s^-1) is shown by the dashed line, almost completely hidden by the experimental curve.
B. The release kinetics were measured by rapidly mixing 0.125 μM Pi, 0.25 μM MDCC-PBP with 10 μM wild-type PBP (mixing chamber concentrations) at 22° C. Other conditions were as above The best-fit single exponential (21.4 s^-1) is shown by the dashed line, almost completely hidden by the experimental curve;
In order to use the probe to measure Pi release from ATPases and GTPases in real time it was important to know the kinetics of Pi interaction with the labeled protein. Because of the fast rates only part of the exponential is observed: a significant proportion of the reaction occurs during the dead time of the instrument (i.e. the time taken for the solution to flow between mixing and the observation chamber).
The dissociation rate of the MDCC-PBP.Pi complex was measured directly in the stopped flow apparatus by rapid mixing of this complex with excess wild-type PBP. Pi is released from the fluorescent complex and binds to the wild-type protein with a rate constant limited by the rate of release (FIG. 6B). The observed rate was 21.3±0.1 (S.E.M.) s^-1 (22° C., […], pH 7.0) for wild-type concentrations from 1.25 to 10 μM, with 0.25 μM MDCC-PBP and 0.125 μM Pi. Because this rate is constant over a range of wild-type concentrations and because the rate is much slower than that expected for Pi binding, assuming the wild-type PBP has similar rate constant to the MDCC-PBP, the observed rate constant probably represents Pi release.

Data set [4] can be described thus: Storage stability of labelled protein. The class given is physicochemical. The source says:
The Pi -sensitive labeled mutant, MDCC-PBP was purified further and tested as described in the Experimental Procedures to show it was a singly-labeled protein with no unlabeled protein or unbound fluorophore. The further purification is important as the unlabeled protein will also bind Pi. Unbound fluorophore would reduce the percentage fluorescence change by increasing the background and it might also slowly react with or bind to other components in the experimental system. The ion exchange chromatography separated MDCC-PBP completely from unlabeled PBP and unbound fluorophore. Thus the final labeled protein has a ratio of absorbance maxima, 280/430 nm of 1.8. The fluorescence excitation maximum is 425 nm and the emission maximum is 474 nm and the fluorescence change with excess Pi at pH 7.0 for the conditions in FIG. 2 is 5.3-fold with a shift of maximum emission to 464 nm. The labeled protein could be stored at […] and was stable on ice for at least 5 days.

Data set [5] in a line: Competition titration of MDCC-PBP.Pi with wild-type PBP. The class given is binding.
The mark [6] stands for this setting: addition 100 μM, preincubated with the Pi mop, 2 μM MDCC-PBP, 20 mM PIPES pH 7.0.
Where [7] appears, read: addition 100 μM, 6 μM CPM-PBP, 10 mM Tris.HCl pH 8.0.
[8] abbreviates: addition 1 mM, 6 μM CPM-PBP, 10 mM Tris.HCl pH 8.0.

“And” between values parts separate entries of the source, which are not always exact repeats. Identical values can stand only once. Like-named read-outs stand apart in the source and are kept apart here.

T1 sequence (P0AG82 26-346 A222C): as above
T3 sequence (P0AG82 26-346 D317C): as the sequence (P0AG82 26-346 A222C) above, with C197A, D292C counted along it

`O=P(O)(O)OP(=O)(O)O` [Pyrophosphate]: the “% fluorescence increase” value was 6% on MDCC-PBP (pH 7) and 5% at CPM-PBP (pH 8).
Regarding `Nc1nc2c(ncn2[C@@H]2O[C@H](COP(=O)(O)OP(=O)(O)O)[C@@H](O)[C@H]2O)c(=O)[nH]1` [GDP], the “% fluorescence increase” value at MDCC-PBP (setting [6]) is listed as 3%; at CPM-PBP (setting [7]), 5%.
`O=P(O)(O)OC[C@H]1OC(O)[C@H](O)[C@@H](O)[C@@H]1O` (stereo partly shown) [Glucose-6-phosphate]: the “% fluorescence increase” value is 3% on MDCC-PBP (setting [6]) and 4% on CPM-PBP (setting [7]).
Take `CC(OP(=O)(O)OP(=O)(O)OP(=O)(O)OC[C@H]1O[C@@H](n2cnc3c(N)ncnc32)[C@H](O)[C@@H]1O)c1ccccc1[N+](=O)[O-]` (stereo partly shown) [NPE-caged ATP, P^31-(2-nitrophenyl)ethyl ATP]: the “% fluorescence increase” value on MDCC-PBP (addition 5 mM, preincubated with the Pi mop, 10 μM MDCC-PBP, 20 mM PIPES pH 7.0) was 0%.
Turning to `Nc1ncnc2c1ncn2[C@@H]1O[C@H](COP(=O)(O)OP(=O)(O)O)[C@@H](O)[C@H]1O` [ADP], the “% fluorescence increase” value amounted to 3% at MDCC-PBP (setting [6]) and 4% on CPM-PBP (setting [7]).
In the case of `O=C1C=CC(=O)N1c1ccc(Nc2ccc3cc(S(=O)(=O)O)ccc3c2)cc1` [MIANS, 2[4(1-maleimidyl)anilino]naphthalene6-sulfonic acid], the “fluorescence change using the Pi mop” value at PBP mutant D292C is listed as 65%.
In the case of `O=S(=O)([O-])[O-].[Na+].[Na+]` [Sodium sulphate], the “% fluorescence increase” value at MDCC-PBP (addition 1 mM, 2 μM MDCC-PBP, 20 mM PIPES pH 7.0) is 3%; at CPM-PBP (setting [8]), 0%.
Turning to `Nc1ncnc2c1ncn2[C@@H]1O[C@H](COP(=O)(O)OP(=O)(O)OP(=O)(O)O)[C@@H](O)[C@H]1O` [ATP], the “% fluorescence increase” value is 2% at MDCC-PBP (addition 100 μM, preincubated with the Pi mop, 10 μM MDCC-PBP, 20 mM PIPES pH 7.0); 11% at MDCC-PBP (addition 1 mM, preincubated with the Pi mop, 10 μM MDCC-PBP, 20 mM PIPES pH 7.0); 5% at CPM-PBP (setting [7]); 13% at CPM-PBP (setting [8]).
For Sodium vanadate, the “% fluorescence increase” value is 35% on MDCC-PBP (addition 100 μM, 2 μM MDCC-PBP, 20 mM PIPES pH 7.0); -2% on CPM-PBP (setting [7]); -11% on CPM-PBP (addition 1.1 mM, 6 μM CPM-PBP, 10 mM Tris.HCl pH 8.0).

B1: MDCC-PBP (conjugate, UniProt P0AG82 26-346, looked up)
Phosphate-binding protein PstS: EASLTGAGATFPAPVYAKWADTYQKETGNKVNYQGIGSSGGVKQIIANTVDFGASDAPLSDEKLAQEGLFQFPTVIGGVVLAVNIPGLKSGELVLDGKTLGDIYLGKIKKWDDEAIAKLNPGLKLPSQNIAVVRRADGSGTSFVFTSYLAKVNEEWKNNVGTGSTVKWPIGLGGKGNDGIAAFVQRLPGAIGYVEYAYAKQNNLAYTKLISADGKPVSPTEENFANAAKGADWSKTFAQDLTNQKGEDAWPITSTTFILIHKDQKKPEQGTEVLKFFDWAYKTGAKQANDLDYASLPDSVVEQVRAAWKTNIKDSSGKPLY
modifications: MDCC fluorophore label
In the case of B1, the “% fluorescence increase” value in data set [1] (10 mM PIPES (pH 7.0), 1M NaCl, 3.2 μM MDCC-PBP) was determined as 350%; in data set [1] (10 mM PIPES (pH 7.0), 2 μM MDCC-PBP), 430%; in data set [1] (10 mM Tris-HCl (pH 8.0), 2 μM MDCC-PBP), 405%. In addition, in data set [1] (pH 7.0, FIG. 2: 3.2 μM MDCC-PBP, 10 mM PIPES, 1 mM MgCl2, 22° C., Pi 50 μM), the “fluorescence change with excess Pi” value came to 5.3 fold. Besides, the “maximum percent increase of fluorescence” value in data set [1] (varies with Pi contamination and protein activity) is given as 400-500%. The “protein active (from linear fluorescence response to Pi)” value in data set [2] (FIG. 3, 20° C., 1 mM MgCl2, 10 mM PIPES pH 7.0) is 75-80%. Moreover, the maximum fluorescence enhancement in data set [2] (FIG. 4, 25° C., 10 mM PIPES pH 7.0, 1 mM MgCl2, 0.28 μM MDCC-PBP) amounted to 415%. The Kd (in general, the free concentration of one partner at which half of the binding sites on the other are occupied at equilibrium, for simple one-to-one binding) in data set [2] (pH7.0) amounted to 30 nM; in data set [2] (pH 8.0) it was 80 nM. The “Pi binding, best-fit single exponential” value in data set [3] (0.1 μM MDCC-PBP, 0.25 μM Pi, 10 mM PIPES pH 7.0, 21° C.) is 65.3 s⁻¹. Also, the “dissociation (Pi release) rate of labelled PBP.Pi complex” value in data set [3] (22° C., PIPES pH 7.0, 0.25 μM MDCC-PBP, 0.125 μM Pi mixed with excess wild-type PBP (1.25 to 10 μM)) was 21.3 ± 0.1 s⁻¹ and 21.4 s⁻¹. Moreover, the “k+ (Pi binding rate constant, one step binding model)” value in data set [3] (pH 7.0, [Pi]<5μM) came out at 1.36e+08 M⁻¹ s⁻¹. Further, the “k- (from fit of observed binding rates)” value in data set [3] (pH 7.0, [Pi]<5μM, prone to error) is 43 s⁻¹. For the same molecule, the stable on ice result in data set [4] was “at least 5 days”.

B2: wild-type PBP: E. coli phosphate binding protein (PBP), unlabelled wild-type (protein, UniProt P0AG82 26-346, looked up)
Phosphate-binding protein PstS: EASLTGAGATFPAPVYAKWADTYQKETGNKVNYQGIGSSGGVKQIIANTVDFGASDAPLSDEKLAQEGLFQFPTVIGGVVLAVNIPGLKSGELVLDGKTLGDIYLGKIKKWDDEAIAKLNPGLKLPSQNIAVVRRADGSGTSFVFTSYLAKVNEEWKNNVGTGSTVKWPIGLGGKGNDGIAAFVQRLPGAIGYVEYAYAKQNNLAYTKLISADGKPVSPTEENFANAAKGADWSKTFAQDLTNQKGEDAWPITSTTFILIHKDQKKPEQGTEVLKFFDWAYKTGAKQANDLDYASLPDSVVEQVRAAWKTNIKDSSGKPLY
Turning to B2, the “relative affinity for Pi versus the labeled mutant (MDCC-PBP)” value in data set [5] was “two-fold tighter”.
